The results in this text go back to patent US12440467B2, “Treatment and prevention of infections using vegetable oil-derived polyols” (priority 2021, dated 2025).

For this test, the target named is T1, CD4-gp120 complex (Human immunodeficiency virus type 1 group M subtype B, UniProt P04578).
T1 construct: recombinant gp120 (5 μg, Sigma-Aldrich); purchased Sigma-Aldrich (gp120); R&D Systems (CD4)
As to the kind of experiment: Immunoprecipitation / Western blot of CD4-gp120 complex formation. The class given is binding, HIV. As to conditions: increasing concentration, Polyol:CD4-gp120 1:1000, 1:100, 1:10; polyol alone. Here is the method:
Immunoprecipitation studies conducted in the presence or absence of the linseed oil-derived polyol were performed to evaluate the impact of the polyol on the formation of the CD4-gp120 complex. A commercially available immunoprecipitation kit consisting of protein G-coated agarose beads (Invitrogen) was used, and immunoprecipitations were conducted according to the manufacturer's protocol. Briefly, the gp120 antibody (5 μg, Sigma-Aldrich) was bound to the protein G-coated agarose beads (50 μl) by placing the antibody and protein G agarose beads in 1.5 ml Eppendorf centrifuge tubes and incubated at room temperature for 10 minutes with rotation. The tubes were placed on the magnet (Life Technologies) and the supernatant was removed. […] The samples were heated for 5 minutes at 95° C., then placed on the magnet, the supernatants were collected and analyzed via western blot. […]
A standard western blot technique was used to evaluate the impact of the polyol on CD4-gp120 complex formation. […] Protein bands on the membrane were detected by chemiluminescence (Femto, ThermoFisher) and imaged on X-ray film (ThermoFisher). The blotted protein was quantified using the Image J software to measure the density, and the values were normalized to an untreated sample.
The inhibitory effect of the linseed oil-derived polyol on the formation of CD4 and […] complex was evaluated with immunoprecipitation (IP). […]

For `CCC(O)C(O)CC(O)C(O)CC=CCCCCCCCC(=O)OC` (stereo not shown) [linseed oil-derived polyol], the “effect on CD4-gp120 complex formation (gp120 bands)” value is given as “reduced the CD4-gp120 complex formation”.
